Target: T1, human sEH enzyme (Homo sapiens, UniProt P34913)
T1 construct: His-tag (N, cleaved yes); made in house; host or cells: E. coli (pET100 vector)
T1 sequence (P34913 1-555): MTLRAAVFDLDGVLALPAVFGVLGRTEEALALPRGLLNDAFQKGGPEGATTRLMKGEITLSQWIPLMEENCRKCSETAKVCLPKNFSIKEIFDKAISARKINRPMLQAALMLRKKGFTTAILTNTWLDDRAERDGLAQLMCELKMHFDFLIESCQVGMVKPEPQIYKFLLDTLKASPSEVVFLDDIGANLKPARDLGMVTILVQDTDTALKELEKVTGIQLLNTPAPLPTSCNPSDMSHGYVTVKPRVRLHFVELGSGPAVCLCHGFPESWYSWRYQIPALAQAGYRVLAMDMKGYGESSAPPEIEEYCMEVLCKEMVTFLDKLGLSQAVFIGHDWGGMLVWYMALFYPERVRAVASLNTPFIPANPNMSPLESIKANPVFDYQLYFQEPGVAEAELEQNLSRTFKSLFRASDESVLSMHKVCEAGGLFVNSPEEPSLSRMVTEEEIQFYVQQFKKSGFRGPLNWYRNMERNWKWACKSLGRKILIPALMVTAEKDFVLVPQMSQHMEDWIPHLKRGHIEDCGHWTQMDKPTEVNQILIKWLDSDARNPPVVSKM
Test: sEH Human Enzyme Assay (fluorescence based enzyme in vitro assay)
Assay type: biochemical
Conditions: recombinant full length human sEH about 1 nM, fluorescence substrate S7 10 uM, pH7.0, 25° C.; read-out: IC50 [nM] for human sEH enzyme inhibition
Text: Preparation of Recombinant sEH Human Enzyme
The DNA for expressing sEH was designed based on a […] sEH cDNA, modified to optimize for expression both in E. coli and insect cells. The designed DNA fragment encodes a protein sequence that is identical to full length human sEH, and the DNA was synthesized in vitro. The DNA was then subcloned into the pET100 vector that will generate a fusion protein with an N-terminal His-tag. The recombinant protein was expressed in E. coli. The sEH enzyme was affinity purified by a Ni^++ column. His-tag was removed by Enter Kinase (EK) digestion. The purified enzyme aliquots were frozen and held at −80° C. for later use.
Fluorescence Based Enzyme In Vitro Assay,
For each assay (100 ul), an aliquot of enzymes (about 1 nM final concentration) was incubated with a fluorescence substrate, S7 (10 uM final concentration), in sEH assay buffer (25 mM HEPES, pH7.0, 0.1 mg/ml BSA) in a 96-well plate. The kinetic reaction reading (Ex330/Em465) was conducted using a plate reader, Spectra max (Molecular Devices) at 25° C.

| IC50 | Structure (SMILES) |
| --- | --- |
| 7 nM | Cc1noc(C2CC3CC2N(C(=O)Nc2ccc(C(F)(F)F)cc2)C3)n1 (stereo not shown) [Example 1] |
| 2 nM | Cc1noc(C2CC3CCC2N(C(=O)Nc2ccc(C(F)(F)F)cc2)C3)n1 (stereo not shown) [Example 2] |
| 2 nM | Cc1noc(C2(C)CC3CCC2N(C(=O)Nc2ccc(C(F)(F)F)cc2)C3)n1 (stereo not shown) [Example 3] |
| 8 nM | CC(c1ccccc1)c1noc(C2CC3CCC2N(C(=O)Nc2ccc(C(F)(F)F)cc2)C3)n1 (stereo not shown) [Example 4] |
| 2 nM | CCc1noc(C2CC3CCC(C2)N3C(=O)Nc2ccc(C(F)(F)F)cc2)n1 (stereo not shown) [Example 5] |
| 1 nM | CN(C)c1noc(C2CC3CCC2N(C(=O)Nc2ccc(C(F)(F)F)cc2)C3)n1 (stereo not shown) [Example 6] |
| 2 nM | CCOc1noc(C2CC3CCC2N(C(=O)Nc2ccc(C(F)(F)F)cc2)C3)n1 (stereo not shown) [Example 7] |
| 1 nM | O=C(Nc1ccc(C(F)(F)F)cc1)N1CC2(c3ccccc3)CCC1CC2 [Example 9] |
| 1 nM | O=C(Nc1ccc(Cl)cc1)N1CC2(c3ccccc3)CCC1C2 (stereo not shown) [Example 10] |
| 51 nM | CN(C)c1noc(C2CC3CCC2N(C(=O)NC2CC2c2ccccc2)C3)n1 (stereo not shown) [Example 13] |
| 18 nM | O=C(NC1CC1c1ccccc1)N1CC2CCC1C(c1nc(C3CC3)no1)C2 (stereo not shown) [Example 14] |
| 14 nM | CCOc1noc(C2CC3CCC2N(C(=O)NC2CC2c2ccccc2)C3)n1 (stereo not shown) [Example 15] |
| 30 nM | Cc1noc(C2(C)CC3CCC2N(C(=O)NC2CC2c2ccccc2)C3)n1 (stereo not shown) [Example 16] |
| 48 nM | CCc1noc(C2CC3CC2N(C(=O)NC2CC2c2ccccc2)C3)n1 (stereo not shown) [Example 17] |
| 6 nM | O=C(NC1CC1c1ccccc1)N1CC2CCC1C(c1nc(C(c3ccccc3)c3ccccc3)no1)C2 (stereo not shown) [Example 18] |
| 4 nM | Cn1cc(-c2noc([C@@H]3C[C@H]4CC[C@H]3CN4C(=O)NC3CC3c3ccccc3)n2)c2ccccc21 (stereo partly shown) [Example 19] |
| 8 nM | Cn1cc(-c2noc(C3(C)CC4CCC3N(C(=O)NC3CC3c3ccccc3)C4)n2)c2ccccc21 (stereo not shown) [Example 20] |

| Structure (SMILES) | IC50 |
| --- | --- |
| O=C(Nc1ccc(C(F)(F)F)cc1)N1C2CCC1C(c1cccnc1)C2 (stereo not shown) [Example 11] | 11 nM |
| O=C(Nc1ccc(C(F)(F)F)cc1)N1C2CCC1C(c1cccnc1)C2 (stereo not shown) [Example 12] | 41 nM |
